What was measured:
[1] = design: method as in PMID 20617034; details: cited from earlier work
[2] = Body temperature in mice; type: in vivo, mouse; details: Zn 2 and 5 mg/kg i.p., 30 and 60 min after administration
Procedure: The experiments were performed on male Albino Swiss mice (23-25 g) and Sprague Dawley rats (200-250 g) from Charles River, Germany as well as […]-flx-YFP mice from Jackson Labs, Bangor ME and the Hen lab, respectively. The animals were kept under standard laboratory conditions with respect to lighting (light phase 7:00-19:00) and temperature (19-21 °C). Food and water were freely available. Each experimental group consisted of eight to ten animals. All of the animals were experimentally naive and were used only once in each test. The experiments were performed during the light period (9:00-14:00 h). All of the procedures were conducted according to the guidelines of the National Institutes of Health Animal Care and Use Committee and were approved by the Ethics Committees of the Institute of Pharmacology, Polish Academy of Sciences in Krakow and the Animal Care Committee, University of Ottawa. […] Controls were treated with the appropriate diluent, which was indicated as VEH on the graphs and in the tables. […] The results were expressed as a change in body temperature with respect to the basal body temperature, which was measured at the beginning of the experiments.

[3] = test system: Sprague Dawley rats; assay: 5-HT behavioural syndrome (flat body posture, forepaw treading) in rats; type: in vivo, rat; details: for behavioural score FBP (A) VEH / behavioural score FT (A) VEH: max score 10
Procedure: The experiments were performed on male Albino Swiss mice (23–25 g) and Sprague Dawley rats (200–250 g) from Charles River, Germany as well as TPH2-Cre-ER^T2 x flx-5-HT1A-flx-YFP mice from Jackson Labs, Bangor ME and the Hen lab, respectively. The animals were kept under standard laboratory conditions with respect to lighting (light phase 7:00–19:00) and temperature (19–21 °C). Food and water were freely available. Each experimental group consisted of eight to ten animals. All of the animals were experimentally naive and were used only once in each test. The experiments were performed during the light period (9:00–14:00 h). All of the procedures were conducted according to the guidelines of the National Institutes of Health Animal Care and Use Committee and were approved by the Ethics Committees of the Institute of Pharmacology, Polish Academy of Sciences in Krakow and the Animal Care Committee, University of Ottawa.
Zn (all doses refer to mg Zn/kg) was given as either Zn hydroaspartate (Farmapol, Poland) or Zn chloride (Sigma-Aldrich) and was dissolved in 0.9 % NaCl and administered intraperitoneally (i.p.). 8-OH-DPAT and WAY-100635 were dissolved in aqua pro-injection and were administered subcutaneously (s.c.). Controls were treated with the appropriate diluent, which was indicated as VEH on the graphs and in the tables.
The experiments were conducted according to previously published procedure, with a modification to the ranked intensity scale. Briefly, the rats were individually placed in cages (30×25×25 cm) 5 min before tested compounds were injected. Forepaw treading (FT) and flat body posture (FBP) were scored using a ranked intensity scale, where 0=absent, 1=equivocal and 2=present. The Zn (2, 5, 7.5 and 11.5 mg Zn/kg, given as a Zn hydroaspartate)-induced behavioural syndrome was scored for each animal 3, 6, 9, 12 and 15 min after the Zn treatment. Each observation session lasted for 45 s. The maximum score, which was summed over 5 observation periods, was 10 for each symptom/rat. The effect of Zn on the behavioural syndrome induced by 8-OH-DPAT (5 mg/kg) was scored using the same scale. Zn was administered 60 min before 8-OH-DPAT, and the animals were scored 3, 6, 9, 12 and 15 min after the 8-OH-DPAT treatment.

[4] = test system: β2 adrenergic receptors; design: method as in PMID 11752207; details: cited from earlier work
[5] = Body temperature in wild-type and 5-HT1A autoreceptor KO mice; type: in vivo, mouse; details: Zn 5 mg/kg (Zn chloride), 30 and 60 min
Source text: A conditional knockout approach was used to eliminate the 5-HT1AR in the raphe nuclei in adult mice. To create the conditional 5-HT1AR knockout mice, a TPH2-Cre-ER^T2 mouse line was crossed with a flx-5-HT1A-YFP mouse line. The TPH2-Cre-ER^T2 confers specificity such that only serotonin neurons, which express tryptophan hydroxylase 2 (TPH2), can express Cre recombinase to knockout the 5-HT1AR gene and allow for […] expression. Once the mice reached adulthood (approximately 5–6 postnatal weeks), tamoxifen (180 mg/kg) was injected i.p. every day for five consecutive days (the tamoxifen binds to the ER^T2 domain and enables Cre to enter the nucleus where it can excise the 5-HT1AR gene, allowing for YFP expression as a marker of recombination). The mice were then left undisturbed for at least 14 days to allow for recombination and the turnover of endogenous 5-HT1ARs.
A separate experiment was performed to measure the effect of Zn on rectal body temperature in wild-type and 5-HT1A autoreceptor KO mice; however, in this experiment, only the higher dose of Zn (5 mg Zn/kg; Zn chloride, Sigma) was used.

[6] = Zn 2 mg/kg 60 min before 8-OH-DPAT 5 mg/kg
[7] = Zn 5 mg/kg 60 min before 8-OH-DPAT 5 mg/kg
[8] = Zn 7.5 mg/kg 60 min before 8-OH-DPAT 5 mg/kg
[9] = Zn 11.5 mg/kg 60 min before 8-OH-DPAT 5 mg/kg

For `[Zn+2]` [Zn, Zinc], the “extracellular Zn level reported as neurotoxic” value [1] is listed as “over 300 μM”, the “change in body temperature” value [2] is listed as “significantly and dose-dependently decreased body temperature” and the “effect on 8-OH-DPAT-induced FBP and FT (in words)” value ([3]; FBP at 11.5 mg/kg, FT at 7.5 and 11.5 mg/kg Zn) is listed as “blocked the 8-OH-DPAT-induced FBP and FT”. For the same compound, the “behavioural score FBP (B) 8-OH-DPAT” value [3, 6] was 7.7±0.3, the “behavioural score FT (B) 8-OH-DPAT” value [3, 6] was 7.1±0.6 and the “behavioural score FBP (A) VEH” value ([3]; Zn 2 mg/kg alone) was 0.2±0.2. For the same compound, the “behavioural score FT (A) VEH” value ([3]; Zn 2 mg/kg alone) was 0.3±0.2, the “behavioural score FBP (B) 8-OH-DPAT” value [3, 7] was 7.5±0.8 and the “behavioural score FT (B) 8-OH-DPAT” value [3, 7] was 7.5±0.5. The “behavioural score FBP (A) VEH” value ([3]; Zn 5 mg/kg alone) was 0.3±0.3, the “behavioural score FT (A) VEH” value ([3]; Zn 5 mg/kg alone) was 0.2±0.2 and the “behavioural score FBP (B) 8-OH-DPAT” value [3, 8] was 7.0±0.3. The “behavioural score FT (B) 8-OH-DPAT” value [3, 8] was 5.0±0.6, the “behavioural score FBP (A) VEH” value ([3]; Zn 7.5 mg/kg alone) was 0.5±0.5 and the “behavioural score FT (A) VEH” value ([3]; Zn 7.5 mg/kg alone) was 0.2±0.2. For the same compound, the “behavioural score FBP (B) 8-OH-DPAT” value [3, 9] was 3.4±0.6, the “behavioural score FT (B) 8-OH-DPAT” value [3, 9] was 0.4±0.2 and the “behavioural score FBP (A) VEH” value ([3]; Zn 11.5 mg/kg alone) was 0.5±0.2. For the same compound, the “behavioural score FT (A) VEH” value ([3]; Zn 11.5 mg/kg alone) was 0.2±0.2, the “induction of FBP or FT (in words)” value ([3]; Zn 2, 5, 7.5 and 11.5 mg/kg alone) was “did not induce FBP or FT” and the “effect on agonist affinity” value ([4]; 5 μM of Zn) was “enhanced agonist affinity”. The “effect on antagonist binding” value ([4]; 500 μM of Zn) was “inhibited antagonist binding” and the “change in body temperature” value [5] was “decreased the body temperature of the wild-type mice”.

Reference: publication PMC5104769, “Concentration-Dependent Dual Mode of Zn Action at Serotonin 5-HT1A Receptors: In Vitro and In Vivo Studies” (Molecular neurobiology, 2015)
